From publication PMC8637440, “Structural Modifications Yield Novel Insights Into the Intriguing Pharmacodynamic Potential of Anti-inflammatory Nitro-Fatty Acids” (Frontiers in Pharmacology, 2021)
Read-outs that look alike come from different tables or passages of the source.

Target: T1, 5-LO (Homo sapiens, UniProt P09917)
T1 construct: endogenous in cells; host or cells: human PMNL from buffy coats
T1 sequence (P09917 1-674): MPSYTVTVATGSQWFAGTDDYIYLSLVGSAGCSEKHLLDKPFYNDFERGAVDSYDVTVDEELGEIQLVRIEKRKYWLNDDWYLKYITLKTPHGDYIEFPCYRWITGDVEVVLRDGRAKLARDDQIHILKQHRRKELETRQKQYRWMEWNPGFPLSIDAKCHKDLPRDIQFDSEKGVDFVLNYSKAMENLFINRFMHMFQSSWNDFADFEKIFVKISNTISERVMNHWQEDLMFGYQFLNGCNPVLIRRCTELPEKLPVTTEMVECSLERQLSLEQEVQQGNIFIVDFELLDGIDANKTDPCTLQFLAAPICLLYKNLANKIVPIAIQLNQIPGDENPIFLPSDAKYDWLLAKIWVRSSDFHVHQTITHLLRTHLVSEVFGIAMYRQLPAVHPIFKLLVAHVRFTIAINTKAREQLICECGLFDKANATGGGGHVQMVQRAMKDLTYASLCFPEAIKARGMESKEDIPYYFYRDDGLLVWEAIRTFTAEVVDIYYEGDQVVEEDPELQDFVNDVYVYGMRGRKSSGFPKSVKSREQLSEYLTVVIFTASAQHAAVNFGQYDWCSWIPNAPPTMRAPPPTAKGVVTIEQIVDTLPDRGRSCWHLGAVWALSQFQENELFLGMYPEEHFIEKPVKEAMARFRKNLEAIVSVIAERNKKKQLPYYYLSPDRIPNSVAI
Assay: 5-LO product formation (LTB4, 5-HETE) in intact PMNL, A23187 in absence of AA
Type: cell-based
Method: Buffy coats from different donors of different blood types were commercially obtained from DRK Blutspendedienst Baden-Württemberg Institute Frankfurt. Donors have given their written consent. To avoid initial blood clotting only buffy coats from one donor or several donors with the same blood type were combined and diluted with 1× PBS mixed with 5% dextran solution and allowed to stand for 30 min at RT to separate the erythrocytes. Following separation, the supernatant was transferred very gently to new 50-ml tubes containing lymphocyte separation medium (LSM) and centrifuged for 10 min at 800 ×g at RT with the centrifuge brake turned off. Afterwards, the supernatant was decanted carefully to discard the platelets and monocytes. The PMNL were washed with 1× PBS before the residual erythrocytes were lysed in two cycles: the cell pellet was resuspended with 10 ml H2O and vortexed for 45 s, and lysis was stopped with 40 ml 1 × PBS. After 10-min centrifugation at 200 ×g at RT, the cycle was repeated once. The supernatant was aspirated, the cell pellet resuspended in 5 ml PBS/glucose and initially separated PMNL preparations with different blood types were finally pooled to gain a sufficient number of cells.
5-LO activity in intact cells was assayed by measuring LTB4 (leukotriene B4) and 5-HETE (5-hydroxyeicosatetraenoic acid) levels in the PMNL supernatants. […] Recombinant 5-LO enzyme activity was assessed by the determination of 5-HETE levels representing a direct product assay. In the cell-based LO activity assays, 5 × 10^6 cells per ml PBS/glucose were transferred to 5 ml glass tubes containing 1 mM CaCl2 and stored on ice. […] […] Recombinant 5-LO activity assays were carried out using 3 µg r5LO-wt enzyme. The enzyme was diluted in PBS/EDTA/ATP, transferred into 5-ml glass tubes, and stored on ice. […] The samples were then pre-heated at 37°C in a water bath and subsequently stimulated with 1 mM CaCl2 and 20 µM AA for 10 min at 37°C. The reaction was stopped by placing the glass tubes on ice. The supernatants were transferred to 1.5 ml reaction tubes and stored at −80°C before LC-MS (liquid chromatography and mass spectrometry) analysis of LTB4 and HETEs as described in 2.6 at the Institute of Pharmacology, Goethe University, University Hospital, Germany.
For experiments shown in Table 4 samples after treatment were supplemented with 500 µl PBS, 30 µl HCl (1 N), and 200 ng internal standard prostaglandin B1. Those samples containing intact cells were centrifuged for 10 min (870 g, room temperature). […] The eluate was diluted with 125 µl H2O and analyzed by reverse-phase HPLC as previously described ([Steinhilber et al., 1989]). […] Unless otherwise stated, 5-LO metabolites 6-trans-LTB4, 12-epi-6-trans-LTB4, LTB4, and 5-H(p)ETE were quantified.

[1] = read-out: PMNL (w/o AA) 5-HETE IC50
[2] = read-out: PMNL (w/o AA) LTB4 IC50

Structure (SMILES) | IC50 [1] | IC50 [2]
CCCCCCCCC=C(CCCCCCCC(=O)O)[N+](=O)[O-] [18.9.9, 9-nitro-octadec-9-enoic acid] | 2340 ± 1500 nM | 2580 ± 1400 nM
CCCCCCCCCCC=C(CCCCCCCC(=O)O)[N+](=O)[O-] [20.9.9, 9-nitro-eicos-9-enoic acid] | 2060 ± 1340 nM | 2050 ± 1250 nM
